In PubChem BioAssay AID248 (DTP/NCI, 2004):
Toxic doses and inconclusive results are not listed. Rule as the data show it: active = T/C of 150% or more; inactive = T/C below 125%.

System: L1210 leukemia ip in BDF1 mice, survival T/C
Assay: NCI In Vivo Anticancer Drug Screen. Data for tumor model L1210 Leukemia (intraperitoneal) in B6D2F1 (BDF1) mice
Details: endpoint: mean survival time, higher = longer survival
Method in brief: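 Ratio derived from survival: compound-dosed mice over vehicle-dosed mice, all bearing a transplantable tumor.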

[1] = dose: 6.25 mg/kg/injection, schedule: Q01DX009 (ip), vehicle: saline
[2] = dose: 12.5 mg/kg/injection, schedule: Q01DX009 (ip), vehicle: saline
[3] = dose: 25.0 mg/kg/injection, schedule: Q01DX009 (ip), vehicle: saline
[4] = dose: 25.0 mg/kg/injection, schedule: Q04DX003 (ip), vehicle: saline
[5] = dose: 50.0 mg/kg/injection, schedule: Q01DX009 (ip), vehicle: saline
[6] = dose: 50.0 mg/kg/injection, schedule: Q04DX003 (ip), vehicle: saline
[7] = dose: 100.0 mg/kg/injection, schedule: Q01DX009 (ip), vehicle: saline
[8] = dose: 100.0 mg/kg/injection, schedule: Q04DX003 (ip), vehicle: saline
[9] = dose: 100.0 mg/kg/injection, schedule: Q01DX009 (ip), vehicle: Klucel (hydroxypropylcellulose) (HPC)
[10] = dose: 200.0 mg/kg/injection, schedule: Q01DX009 (ip), vehicle: Klucel (hydroxypropylcellulose) (HPC)
[11] = dose: 100.0 mg/kg/injection, schedule: Q04DX003 (ip), vehicle: Klucel (hydroxypropylcellulose) (HPC)
[12] = dose: 200.0 mg/kg/injection, schedule: Q04DX003 (ip), vehicle: Klucel (hydroxypropylcellulose) (HPC)
[13] = dose: 400.0 mg/kg/injection, schedule: Q01DX009 (ip), vehicle: Klucel (hydroxypropylcellulose) (HPC)
[14] = dose: 400.0 mg/kg/injection, schedule: Q04DX003 (ip), vehicle: Klucel (hydroxypropylcellulose) (HPC)

Measured: T/C

CNCC(C)(C)c1ccccc1
inactive: [1] 101 % of control | [2] 101 % of control | [3] 102 % of control | [4] 104 % of control | [5] 107 % of control | [6] 104 % of control | [7] 104 % of control | [8] 106 % of control

O=C(CCCCl)N1CCCC1
inactive: dose: 100.0 mg/kg/injection, schedule: Q04DX002 (ip), vehicle: saline 98 % of control | dose: 200.0 mg/kg/injection, schedule: Q04DX002 (ip), vehicle: saline 91 % of control | dose: 400.0 mg/kg/injection, schedule: Q04DX002 (ip), vehicle: saline 94 % of control

N#CCCN(CCC#N)/N=N\c1nc[nH]c1C(N)=O
inactive: dose: 50.0 mg/kg/injection, schedule: Q01DX001 (ip), vehicle: water 104 % of control | dose: 50.0 mg/kg/injection, schedule: Q04DX003 (ip), vehicle: water 98 % of control | dose: 100.0 mg/kg/injection, schedule: Q01DX001 (ip), vehicle: other 104 % of control | dose: 100.0 mg/kg/injection, schedule: Q01DX001 (ip), vehicle: water 97 % of control | dose: 100.0 mg/kg/injection, schedule: Q01DX009 (ip), vehicle: other 101 % of control | dose: 100.0 mg/kg/injection, schedule: Q04DX003 (ip), vehicle: other 104 % of control | dose: 100.0 mg/kg/injection, schedule: Q04DX003 (ip), vehicle: water 100 % of control | dose: 200.0 mg/kg/injection, schedule: Q01DX001 (ip), vehicle: other 102 % of control | dose: 200.0 mg/kg/injection, schedule: Q01DX001 (ip), vehicle: water 96 % of control | dose: 200.0 mg/kg/injection, schedule: Q01DX009 (ip), vehicle: other 95 % of control | dose: 200.0 mg/kg/injection, schedule: Q04DX003 (ip), vehicle: other 105 % of control | dose: 200.0 mg/kg/injection, schedule: Q04DX003 (ip), vehicle: water 102 % of control | dose: 400.0 mg/kg/injection, schedule: Q01DX001 (ip), vehicle: other 102 % of control | dose: 400.0 mg/kg/injection, schedule: Q01DX001 (ip), vehicle: water 101 % of control | dose: 400.0 mg/kg/injection, schedule: Q01DX009 (ip), vehicle: other 93 % of control | dose: 400.0 mg/kg/injection, schedule: Q04DX003 (ip), vehicle: other 98 % of control | dose: 400.0 mg/kg/injection, schedule: Q04DX003 (ip), vehicle: water 97 % of control

O=C(Nc1cccc(C(=O)O)c1)Nc1cccc(C(F)(F)F)c1
inactive: [9] 86 % of control | [10] 86 % of control

Cc1ccc(CN(CC(=O)O)N=O)cc1
inactive: dose: 100.0 mg/kg/injection, schedule: Q01DX Z (ip), vehicle: saline 107 % of control | dose: 200.0 mg/kg/injection, schedule: Q01DX Z (ip), vehicle: saline 100 % of control

CCOC(=O)C(CC(C)C)NC(=O)C(Cc1ccc(N(CCCl)CCCl)cc1)NC(C)=O (centres undefined)
inactive: dose: 1.0 mg/kg/injection, schedule: Q01DX009 (ip), vehicle: other 108 % of control | dose: 2.0 mg/kg/injection, schedule: Q01DX009 (ip), vehicle: other 108 % of control | dose: 4.0 mg/kg/injection, schedule: Q01DX009 (ip), vehicle: other 120 % of control | dose: 8.0 mg/kg/injection, schedule: Q01DX009 (ip), vehicle: other 119 % of control | dose: 16.0 mg/kg/injection, schedule: Q01DX009 (ip), vehicle: other 109 % of control | dose: 32.0 mg/kg/injection, schedule: Q01DX009 (ip), vehicle: other 116 % of control | dose: 62.5 mg/kg/injection, schedule: Q01DX001 (oral), vehicle: alcohol 102 % of control | dose: 66.0 mg/kg/injection, schedule: Q01DX001 (ip), vehicle: olive oil, sesame oil, peanut oil 108 % of control | dose: 100.0 mg/kg/injection, schedule: Q01DX001 (ip), vehicle: olive oil, sesame oil, peanut oil 110 % of control | dose: 125.0 mg/kg/injection, schedule: Q01DX001 (oral), vehicle: alcohol 101 % of control | dose: 250.0 mg/kg/injection, schedule: Q01DX001 (oral), vehicle: alcohol 104 % of control | dose: 250.0 mg/kg/injection, schedule: Q01DX001 (oral), vehicle: olive oil, sesame oil, peanut oil 113 % of control | dose: 500.0 mg/kg/injection, schedule: Q01DX001 (oral), vehicle: alcohol 113 % of control

NC(=S)N/N=C\c1[nH]c(=O)nc2ccccc12
inactive: [9] 98 % of control | [11] 103 % of control | [10] 92 % of control | [12] 100 % of control | [13] 95 % of control | [14] 97 % of control

CCNC1C2CCC(C2)C1c1ccccc1 (centres undefined)
inactive: dose: 3.12 mg/kg/injection, schedule: Q01DX009 (ip), vehicle: saline 94 % of control | [1] 94 % of control | [2] 89 % of control | [3] 93 % of control | [4] 89 % of control | [6] 94 % of control

O=C(NNC(=O)c1ccc([N+](=O)[O-])cc1)c1ccccc1
inactive: [9] 96 % of control | [11] 105 % of control | [10] 101 % of control | [12] 103 % of control | [13] 94 % of control | [14] 100 % of control

CCC(CC)N=C(N)N
inactive: [8] 93 % of control

CC(C)CC(CC(C)C)NCCOC(=O)Cc1ccccc1
inactive: dose: 75.0 mg/kg/injection, schedule: Q01DX001 (ip), vehicle: other 93 % of control | dose: 150.0 mg/kg/injection, schedule: Q01DX001 (ip), vehicle: other 89 % of control

Cc1nc2ccc(NC(=O)c3ccccc3)cc2o1
inactive: [11] 105 % of control | [12] 105 % of control | [14] 100 % of control

CN(C)CCN=C(Nc1ccccn1)Nc1ccccn1
inactive: dose: 12.5 mg/kg/injection, schedule: Q01DX001 (ip), vehicle: saline 113 % of control | dose: 25.0 mg/kg/injection, schedule: Q01DX001 (ip), vehicle: saline 104 % of control | [3] 110 % of control | [4] 100 % of control | dose: 50.0 mg/kg/injection, schedule: Q01DX001 (ip), vehicle: saline 113 % of control | [5] 100 % of control | [6] 95 % of control | dose: 100.0 mg/kg/injection, schedule: Q01DX001 (ip), vehicle: saline 97 % of control | [7] 97 % of control | [8] 113 % of control

O=c1cc(-c2ccccc2)ss1
inactive: [9] 100 % of control | dose: 100.0 mg/kg/injection, schedule: Q01DX009 (ip), vehicle: saline with Tween-80 101 % of control | dose: 100.0 mg/kg/injection, schedule: Q04DX003 (ip), vehicle: saline with Tween-80 102 % of control | [10] 102 % of control | dose: 200.0 mg/kg/injection, schedule: Q01DX009 (ip), vehicle: saline with Tween-80 97 % of control | dose: 200.0 mg/kg/injection, schedule: Q04DX003 (ip), vehicle: saline with Tween-80 102 % of control | [13] 105 % of control | dose: 400.0 mg/kg/injection, schedule: Q01DX009 (ip), vehicle: saline with Tween-80 96 % of control | dose: 400.0 mg/kg/injection, schedule: Q04DX003 (ip), vehicle: saline with Tween-80 103 % of control

CNC(=O)ON=C1CCC(CC2CCCCC2)CC1 (centres undefined)
inactive: dose: 50.0 mg/kg/injection, schedule: Q01DX009 (ip), vehicle: Klucel (hydroxypropylcellulose) (HPC) 100 % of control | [9] 91 % of control | [11] 92 % of control | [10] 96 % of control | [12] 94 % of control

O=C1c2cccc3cccc(c23)C(=O)N1CCN1C(=O)c2cccc3cccc(c23)C1=O
inactive: dose: 3.13 mg/kg/injection, schedule: Q01DX009 (ip), vehicle: Klucel (hydroxypropylcellulose) (HPC) 100 % of control | dose: 6.25 mg/kg/injection, schedule: Q01DX009 (ip), vehicle: Klucel (hydroxypropylcellulose) (HPC) 103 % of control | dose: 12.5 mg/kg/injection, schedule: Q01DX009 (ip), vehicle: Klucel (hydroxypropylcellulose) (HPC) 100 % of control

C=CP(c1ccccc1)c1ccccc1
inactive: dose: 100.0 mg/kg/injection, schedule: Q01DX009 (ip), vehicle: saline sonified 103 % of control | dose: 200.0 mg/kg/injection, schedule: Q01DX009 (ip), vehicle: saline sonified 110 % of control

NC(=O)Nc1cccc2ccccc12
inactive: [9] 97 % of control | [11] 92 % of control | [10] 97 % of control | [12] 94 % of control | [13] 103 % of control | [14] 100 % of control
